For data set [1], the system named is recombinant NL4-3 virus (nef section replaced with Renilla luciferase gene) in MT-2 cells. Nature of the data set: HIV cell culture assay (antiviral activity, luciferase readout). The class given is cell-based. The following applies: NL43, MT-2 cells infected for 4-5 days with recombinant NL4-3 Renilla luciferase virus. On the procedure: HIV cell culture assay—MT-2 cells, 293T cells and the proviral DNA clone of NL4-3 virus were obtained from the NIH AIDS Research and Reference Reagent Program. MT-2 cells were propagated in RPMI 1640 media supplemented with 10% heat inactivated fetal bovine serum (FBS), […]. The 293T cells were propagated in DMEM media supplemented with 10% heat inactivated FBS, […]. A recombinant NL4-3 proviral clone, in which a section of the nef gene was replaced with the Renilla luciferase gene, was used to make the reference virus used in these studies. The recombinant virus was prepared through transfection of the recombinant NL4-3 proviral clone into 293T cells using Transit-293 Transfection Reagent from Mirus Bio LLC (Madison, WI). Supernatent was harvested after 2-3 days and the amount of virus present was titered in MT-2 cells using luciferase enzyme activity as a marker by measuring luciferase enzyme activity. Luciferase was quantitated using the EnduRen Live Cell Substrate from Promega (Madison, WI). Antiviral activities of compounds toward the recombinant virus were quantified by measuring luciferase activity in MT-2 cells infected for 4-5 days with the recombinant virus in the presence of serial dilutions of the compound.
The 50% effective concentration (EC50) was calculated by using the exponential form of the median effect equation where (Fa)=1/[1+(ED50/drug conc.)m] (Johnson VA, Byington RT. Infectivity Assay. In Techniques in HIV Research. ed. Aldovini A, Walker BD. 71-76. New York: Stockton Press. 1990). The 50% inhibitory concentration (EC50) was calculated by using the exponential form of the median effect equation where percent inhibition=1/[1+(EC50/drug concentration)m], where m is a parameter that reflects the slope of the concentration-response curve.

Data set [2] can be described thus: Compound cytotoxicity, XTT-based colorimetric assay. The class given is cell-based. To be noted: human; uninfected MT2 cells, day 4, XTT assay. The protocol: Compound cytotoxicity and the corresponding CC50 values were determined using the same protocol as described in the antiviral assay except that uninfected cells were used. Cytotoxicity was assessed on day 4 in uninfected MT2 cells by using a XTT (2,3-bis[2-Methoxy-4-nitro-5-sulfophenyl]-2H-tetrazolium-5-carboxyanilide inner salt)-based colorimetric assay (Sigma-Aldrich, St Louis, Mo).
(Formazan colour is commonly taken as a measure of viable cells.)

One may read the EC50 as the concentration needed to bring the measured effect to its halfway point. In general, CC50 refers to the concentration that lowers cell viability or growth by half.

Bounds are passed on as bounds.

For `Cn1nc(NS(C)(=O)=O)c2c(CCC(F)(F)F)ccc(-n3c([C@H](Cc4cc(F)cc(F)c4)NC(=O)Cn4nc(C(F)F)c5c4C(F)(F)[C@@H]4C[C@H]54)nc4cc(CCC(F)(F)F)ccc4c3=O)c21` [Example 22, 2-((3bS,4aR)-3-(difluoromethyl)-5,5-difluoro-3b,4,4a,5-tetrahydro-1H-cyclopropa[3,4]cyclopenta[1,2-c]pyrazol-1-yl)-N—((S)-2-(3,5-difluorophenyl)-1-(3-(1-methyl-3-(methylsulfonamido)-4-(3,3,3-trifluoropropyl)-1H-indazol-7-yl)-4-oxo-7-(3,3,3-trifluoropropyl)-3,4-dihydroquinazolin-2-yl)ethyl)acetamide], the EC50 in data set [1] turned out to be 0.573 nM. The compound also showed a CC50 at 4 day in data set [2] of more than 1000 nM.

On to `COc1ccc2c(=O)n(-c3ccc(Cl)c4c(NS(C)(=O)=O)nn(C)c34)c([C@H](Cc3cc(F)cc(F)c3)NC(=O)Cn3ccc(C4CC4)n3)nc2n1` [Example 36, (S)—N-(1-(3-(4-chloro-1-methyl-3-(methylsulfonamido)-1H-indazol-7-yl)-7-methoxy-4-oxo-3,4-dihydropyrido[2,3-d]pyrimidin-2-yl)-2-(3,5-difluorophenyl)ethyl)-2-(3-cyclopropyl-1H-pyrazol-1-yl)acetamide], for which, in data set [1], the EC50 was 0.131 nM. In data set [2], this compound displayed a CC50 at 4 day of more than 1000 nM. On the same counts, the results for `CC(C)Oc1ccc2c(=O)n(-c3ccc(Cl)c4c(NS(C)(=O)=O)nn(C)c34)c([C@H](Cc3cc(F)cc(F)c3)NC(=O)Cn3nc(C(F)F)c4c3C(F)(F)C3CC43)nc2n1` (stereo in doubt) [Example 38, N—((S)-1-(3-(4-chloro-1-methyl-3-(methylsulfonamido)-1H-indazol-7-yl)-7-isopropoxy-4-oxo-3,4-dihydropyrido[2,3-d]pyrimidin-2-yl)-2-(3,5-difluorophenyl)ethyl)-2-((3bS,4aR)-3-(difluoromethyl)-5,5-difluoro-3b,4,4a,5-tetrahydro-1H-cyclopropa[3,4]cyclopenta[1,2-c]pyrazol-1-yl)acetamide] are 0.045 nM and more than 1000 nM.

Take `Cn1nc(NS(C)(=O)=O)c2c(Cl)ccc(-n3c([C@H](Cc4cc(F)cc(F)c4)NC(=O)Cn4nc(C(F)(F)F)c5c4C(F)(F)[C@@H]4C[C@H]54)nc4cc(C(C)(C)C)ccc4c3=O)c21` [Example 26, N—((S)-1-(7-(tert-butyl)-3-(4-chloro-1-methyl-3-(methylsulfonamido)-1H-indazol-7-yl)-4-oxo-3,4-dihydroquinazolin-2-yl)-2-(3,5-difluorophenyl)ethyl)-2-((3bS,4aR)-5,5-difluoro-3-(trifluoromethyl)-3b,4,4a,5-tetrahydro-1H-cyclopropa[3,4]cyclopenta[1,2-c]pyrazol-1-yl)acetamide]: in data set [1], the half-maximal effective concentration (EC50) was 0.443 nM. The same compound showed a CC50 at 4 day in data set [2] of more than 1000 nM. Take `CC(C)(C)c1ccc2c(=O)n(-c3ccc(Cl)c4c(NS(C)(=O)=O)nn(CC(F)(F)F)c34)c([C@H](Cc3cc(F)cc(F)c3)NC(=O)Cn3nc(C(F)F)c4c3C(F)(F)[C@@H]3C[C@H]43)nc2c1` [Example 28, N—((S)-1-(7-(tert-butyl)-3-(4-chloro-3-(methylsulfonamido)-1-(2,2,2-trifluoroethyl)-1H-indazol-7-yl)-4-oxo-3,4-dihydroquinazolin-2-yl)-2-(3,5-difluorophenyl)ethyl)-2-((3bS,4aR)-3-(difluoromethyl)-5,5-difluoro-3b,4,4a,5-tetrahydro-1H-cyclopropa[3,4]cyclopenta[1,2-c]pyrazol-1-yl)acetamide]: the CC50 at 4 day in data set [2] was more than 1000 nM.

Values taken from US20240374598A1, “INHIBITORS OF HUMAN IMMUNODEFICIENCY VIRUS REPLICATION” (ViiV HEALTHCARE UK (NO.5) LIMITED, priority 2018, published 2024).
